Measurements reported in patent US12410179B2, “Modulators of TNF alpha activity and uses thereof” (RayThera, Inc., priority 2023, dated 2025).

These compounds were tested against TNFα (Homo sapiens, UniProt P01375) (assay: HEK-Blue hTNFα reporter assay). Details: HEK-Blue hTNFα reporter cells, SEAP readout; read-out: IC50 Range.
Format: cell-based
Set-up: purchased R&D biosystem (R&D Systems) 210-TA-020/CF
Procedure, shortened: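 IC50 from 4-parameter regression of % inhibition, with OD620 of secreted SEAP (QUANTI-Blue, 1 h) referenced to cells with and without hTNFα. HEK-Blue TNFα reporter cells were exposed 24 h to compound premixed 1 h with hTNFα ([…]).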

Sequence of TNFα (P01375 77-233 limits assumed): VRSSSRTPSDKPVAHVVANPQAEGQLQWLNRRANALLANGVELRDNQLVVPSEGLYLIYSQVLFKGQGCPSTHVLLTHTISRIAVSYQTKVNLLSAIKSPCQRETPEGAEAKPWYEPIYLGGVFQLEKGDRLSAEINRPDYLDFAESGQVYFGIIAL

IC50 [nM]	Structure (SMILES)
< 25	CN1C(=O)c2cccc(OC(F)F)c2[C@H]2C[C@@H]1c1nn3cc(F)c(-c4cnc(C5(N)CCC5)nc4)cc3c12 [Example 41]
< 25	[2H]C([2H])([2H])N1C(=O)c2cccc(OC(F)F)c2[C@H]2C[C@@H]1c1nn3ccc(-c4cnc(C5(N)CC5)cn4)cc3c12 [Example 266]
100 to 1000	[2H]C([2H])([2H])N1C(=O)c2cccc(OC(F)F)c2[C@H]2C[C@@H]1c1nn3ccc(-c4cnc([C@]5(O)C[C@@](C)(N)C5)nc4)nc3c12 [Example 180]
25 to 100	[2H]C([2H])([2H])N1C(=O)c2cccc(OC(F)F)c2[C@H]2C[C@@H]1c1nn3ccc(-c4cnc([C@@H](N)C5CC5)nc4)nc3c12 [Example 276]
< 25	[2H]C([2H])([2H])N1C(=O)c2cccc(OC(F)F)c2[C@H]2C[C@@H]1c1nn3ccc(-c4cnc([C@]5(C#N)C[C@@](C)(N)C5)c(F)c4)cc3c12 [Example 292]
< 25	[2H]C([2H])([2H])N1C(=O)c2cccc(OC(F)F)c2[C@H]2C[C@@H]1c1nn3cc(F)c(-c4cnc([C@]5(N)C[C@@](C)(C#N)C5)cn4)cc3c12 [Example 200]
< 25	CN1C(=O)c2cccc(OC(F)F)c2[C@H]2C[C@@H]1c1nn3ccc(-c4cnc(C5(N)CC5)nc4)nc3c12 [Example 6, (7R,14S)-12-(2-(1-aminocyclopropyl)pyrimidin-5-yl)-1-(difluoromethoxy)-6-methyl-6,7-dihydro-7,14-methanobenzo[c]pyrimido[1′,2′:1,5]pyrazolo[4,3-f]azocin-5 (14H)-one]
25 to 100	[2H]C([2H])([2H])N1C(=O)c2cccc(C#N)c2[C@H]2C[C@@H]1c1nn3cc(F)c(-c4cnc(C5(N)CCC5)nc4)cc3c12 [Example 307]
< 25	CN1C(=O)c2cccc(OC(F)F)c2[C@H]2C[C@@H]1c1nn3cc(F)c(-c4cnc([C@]5(N)C[C@@](C)(O)C5)c(F)c4)nc3c12 [Example 50]
25 to 100	CN1C(=O)c2cccc(OC(F)F)c2[C@H]2C[C@@H]1c1nn3ccc(-c4cnc(C5(O)CCOC5)nc4)nc3c12 (stereo partly drawn) [Example 12, (7R,14S)-1-(difluoromethoxy)-12-(2-(3-hydroxytetrahydrofuran-3-yl)pyrimidin-5-yl)-6-methyl-6,7-dihydro-7,14-methanobenzo[c]pyrimido[1′,2′:1,5]pyrazolo[4,3-f]azocin-5 (14H)-one]
< 25	[2H]C([2H])([2H])N1C(=O)c2cccc(OC(F)F)c2[C@H]2C[C@@H]1c1nn3ccc(-c4cnc([C@]5(O)C[C@@](C)(N)C5)nc4)cc3c12 [Example 208]
< 25	[2H]C([2H])([2H])N1C(=O)c2cccc(OC(F)F)c2[C@H]2C[C@@H]1c1nn3ccc(-c4cnc([C@@](O)(CC#N)C(F)F)nc4)cc3c12 [Example 97]
< 25	[2H]C([2H])([2H])N1C(=O)c2ccc(F)c(OC(F)F)c2[C@H]2C[C@@H]1c1nn3ccc(-c4cnc(C5(N)CCC5)nc4)nc3c12 [Example 282]
< 25	CN1C(=O)c2cccc(OC(F)F)c2[C@H]2C[C@@H]1c1nn3ccc(-c4cnc([C@](C)(O)C(F)F)nc4)cc3c12 [Example 74]
< 25	CN1C(=O)c2cccc(OC(F)F)c2[C@H]2C[C@@H]1c1nn3ccc(-c4cnc([C@]5(O)C[C@@](C)(O)C5)nc4)nc3c12 [Example 16]
< 25	[2H]C([2H])([2H])N1C(=O)c2cccc(OC(F)F)c2[C@H]2C[C@@H]1c1nn3cc(F)c(-c4cnc([C@]5(N)C[C@@](C)(C#N)C5)nc4)cc3c12 [Example 240]
< 25	CN1C(=O)c2cccc(OC(F)F)c2[C@H]2C[C@@H]1c1nn3cc(F)c(-c4cnc([C@](C)(O)CO)nc4)cc3c12 [Example 114]
< 25	CN1C(=O)c2cccc(OC(F)F)c2[C@H]2C[C@@H]1c1nn3ccc(-c4cnc([C@@](C)(O)CC#N)nc4)cc3c12 [Example 76]
< 25	[2H]C([2H])([2H])N1C(=O)c2cccc(OC(F)F)c2[C@H]2C[C@@H]1c1nn3ccc(-c4cnc([C@H](N)C5CC5)nc4)cc3c12 [Example 257]
< 25	CN1C(=O)c2cccc(OC(F)F)c2[C@H]2C[C@@H]1c1nn3ccc(-c4cnc([C@]5(N)C[C@H](O)C5)c(F)c4)cc3c12 [Example 169]
100 to 1000	CN1C(=O)c2cccc(OC(F)F)c2[C@H]2C[C@@H]1c1nn3ccc(-c4cnc([C@H](O)CN5CCC5)nc4)cc3c12 [Example 172]
< 25	CN1C(=O)c2cccc(OC(F)F)c2[C@H]2C[C@@H]1c1nn3ccc(-c4cnc([C@]5(O)C[C@](C)(O)C5)nc4)cc3c12 [Example 139]
25 to 100	[2H]C([2H])([2H])N1C(=O)c2cccc(OC(F)F)c2[C@H]2C[C@@H]1c1nn3ccc(-c4cnc(C5(N)COC5)nc4)nc3c12 [Example 177]

IC50 [nM]	Structure (SMILES)
< 25	Cc1cc(P(C)(C)=O)c(F)cc1-c1ccn2nc3c(c2c1)[C@@H]1C[C@H]3NC(=O)c2cccc(OC(F)F)c21 [Example 198]
< 25	CN1C(=O)c2ccc(F)c(OC(F)F)c2[C@H]2C[C@@H]1c1nn3ccc(-c4ccc(P(C)(C)=O)nc4)cc3c12 [Example 34]
< 25	CN1C(=O)c2cccc(OC(F)F)c2[C@H]2C[C@@H]1c1nn3ccc(-c4cnc(C5(N)COC5)nc4)cc3c12 [Example 49]
< 25	CN1C(=O)c2cccc(OC(F)F)c2[C@H]2C[C@@H]1c1nn3ccc(-c4cnc(OCP(C)(C)=O)nc4)cc3c12 [Example 67]
< 25	CN1C(=O)c2cccc(OC(F)F)c2[C@H]2C[C@@H]1c1nn3ccc(-c4cnc([C@]5(O)C[C@@](C)(O)C5)nc4)cc3c12 [Example 24]
< 25	Cc1nc([C@]2(O)C[C@@](C)(O)C2)ncc1-c1ccn2nc3c(c2c1)[C@@H]1C[C@H]3N(C)C(=O)c2cccc(OC(F)F)c21 [Example 147]
< 25	CN1C(=O)c2cccc(OC(F)F)c2[C@H]2C[C@@H]1c1nn3cc(F)c(-c4cnc(P(C)(C)=O)cn4)cc3c12 [Example 128]
< 25	[2H]C([2H])([2H])N1C(=O)c2cccc(OC(F)F)c2[C@H]2C[C@@H]1c1nn3cc(F)c(-c4cnc([C@]5(N)C[C@@](C)(O)C5)nc4)cc3c12 [Example 267]
< 25	C[C@]1(C#N)C[C@](N)(c2ncc(-c3ccn4nc5c(c4n3)[C@@H]3C[C@H]5NC(=O)c4cccc(OC(F)F)c43)cn2)C1 [Example 60]
100 to 1000	[2H]C([2H])([2H])N1C(=O)c2cccc(OC(F)F)c2[C@H]2C[C@@H]1c1nn3ccc(-c4cnc([C@]5(C#N)C[C@](C)(N)C5)nc4)nc3c12 [Example 236]
< 25	CN1C(=O)c2cccc(OC(F)F)c2[C@H]2C[C@@H]1c1nn3cc(F)c(-c4cnc([C@]5(N)C[C@@](C)(C#N)C5)nc4)nc3c12 [Example 51]
< 25	CN1C(=O)c2cccc(OC(F)F)c2[C@H]2C[C@@H]1c1nn3cnc(-c4cnc([C@]5(N)C[C@@](C)(O)C5)c(F)c4)cc3c12 [Example 47]
< 25	C[C@]1(C#N)C[C@](N)(c2ncc(-c3ccn4nc5c(c4c3)[C@@H]3C[C@H]5NC(=O)c4cccc(OC(F)F)c43)cc2F)C1 [Example 190]
< 25	CN1C(=O)c2cccc(C#N)c2[C@H]2C[C@@H]1c1nn3ccc(-c4cnc(C5(N)CCC5)nc4)cc3c12 [Example 54]
< 25	CN1C(=O)c2cccc(OC(F)F)c2[C@H]2C[C@@H]1c1nn3ccc(-c4cnc([C@]5(N)C[C@@](C)(O)C5)nc4)nc3c12 [Example 9, (7R,14S)-12-(2-((1s,3R)-1-amino-3-hydroxy-3-methylcyclobutyl)pyrimidin-5-yl)-1-(difluoromethoxy)-6-methyl-6,7-dihydro-7,14-methanobenzo[c]pyrimido[1′,2′:1,5]pyrazolo[4,3-f]azocin-5 (14H)-one]
< 25	CN1C(=O)c2cccc(OC(F)F)c2[C@H]2C[C@@H]1c1nn3ccc(-c4cnc(C(C)(C)O)nc4)cc3c12 [Example 19]
< 25	CN1C(=O)c2cccc(OC(F)F)c2[C@H]2C[C@@H]1c1nn3cc(F)c(-c4ccc([S@@](=N)(=O)C5CC5)nc4)cc3c12 [Example 120]
< 25	CN1C(=O)c2cccc(OC(F)F)c2[C@H]2C[C@@H]1c1nn3cc(F)c(-c4cnc(P(C)(C)=O)c(F)c4)cc3c12 [Example 39]
< 25	[2H]C([2H])([2H])N1C(=O)c2cccc(OC(F)F)c2[C@H]2C[C@@H]1c1nn3cnc(-c4cnc(C5(N)CCC5)nc4)cc3c12 [Example 262]
< 25	[2H]C([2H])([2H])N1C(=O)c2cccc(OC(F)F)c2[C@H]2C[C@@H]1c1nn3ccc(-c4cnc([C@]5(O)C[C@@](C)(N)C5)c(F)c4)cc3c12 [Example 246]
< 25	CN1C(=O)c2cccc(OC(F)F)c2[C@H]2C[C@@H]1c1nn3ccc([C@H]4CC[C@@H](OC[C@H](O)CO)CC4)cc3c12 [Example 317, (7R,14S)-1-(difluoromethoxy)-12-((1S,4R)-4-((R)-2,3-dihydroxypropoxy)cyclohexyl)-6-methyl-6,7-dihydro-7,14-methanobenzo[c]pyrido[1′,2′:1,5]pyrazolo[4,3-f]azocin-5 (14H)-one]
25 to 100	CN1C(=O)c2cccc(OC(F)F)c2[C@H]2C[C@@H]1c1nn3ccc(-c4cnc(C(C)(C)O)nc4)nc3c12 [Example 11, (7R,14S)-1-(difluoromethoxy)-12-(2-(2-hydroxypropan-2-yl)pyrimidin-5-yl)-6-methyl-6,7-dihydro-7,14-methanobenzo[c]pyrimido[1′,2′:1,5]pyrazolo[4,3-f]azocin-5 (14H)-one]
< 25	[2H]C([2H])([2H])N1C(=O)c2cccc(OC(F)F)c2[C@H]2C[C@@H]1c1nn3cc(F)c(-c4cnc([C@]5(N)C[C@](O)(C(F)(F)F)C5)nc4)nc3c12 [Example 183]

Same assay, conditions: HEK-Blue hTNFα reporter cells; read-out: TNFα reporter, Emax

Emax [%]	Structure (SMILES)
70	CN1C(=O)c2cccc(OC(F)F)c2[C@H]2C[C@@H]1c1nc3ccc(-c4cnc(C5(O)CCOCC5)nc4)cc3n12 [Comp. Ex #3, reference compound]
91	CN1C(=O)c2cccc(OC(F)F)c2[C@H]2C[C@@H]1c1nn3ccc(-c4cnc([C@]5(O)C[C@@](C)(O)C5)nc4)cc3c12 [Example 24]
94	CN1C(=O)c2cccc(OC(F)F)c2[C@H]2C[C@@H]1c1nn3cnc(-c4cnc([C@]5(N)C[C@@](C)(O)C5)c(F)c4)cc3c12 [Example 47]

Same assay, conditions: HEK-Blue hTNFα reporter cells; read-out: TNFα reporter, IC50

IC50 [nM]	Structure (SMILES)
8.2	CN1C(=O)c2cccc(OC(F)F)c2[C@H]2C[C@@H]1c1nc3ccc(-c4cnc(C5(O)CCOCC5)nc4)cc3n12 [Comp. Ex #3, reference compound]
2.3	CN1C(=O)c2cccc(OC(F)F)c2[C@H]2C[C@@H]1c1nn3ccc(-c4cnc([C@]5(O)C[C@@](C)(O)C5)nc4)cc3c12 [Example 24]
3.6	CN1C(=O)c2cccc(OC(F)F)c2[C@H]2C[C@@H]1c1nn3cnc(-c4cnc([C@]5(N)C[C@@](C)(O)C5)c(F)c4)cc3c12 [Example 47]
